Laboratory results taken from patent publication EP3290412A1, “HIV-1 NUCLEOCAPSID INHIBITORS” (Università degli Studi di Siena, priority 2016, dated 2018).

Experiments:
[1] = system: Peripheral blood mononuclear cells (PBMC); assay type: cell-based; details: human, 7 days
How it was run: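 Healthy-donor PBMC stimulated 2 days with 5 µg/mL PHA, then seeded at 1x10^5 cells/well in medium with 20 IU/mL IL-2 and exposed to compound for 7 days. Viability measured by MTS (4 h, OD 490 nm). TD50 interpolated from dose versus percent mortality relative to untreated cells.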

HeLa cells = assay: HeLa Proliferation assay (CellTiter Glo); assay type: cell-based; details: 72 hours
How it was run: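 HeLa cells in phenol red-free DMEM + 10% FBS plated at 2000 cells/well, recovered 4 h, then exposed to compounds for 72 h at 37 °C, 5% CO2. Viability read by CellTiter Glo luminescence.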

| SMILES | Proliferation assay PBMC TD50 [1] [nM] | Proliferation assay HELA TD50 (HeLa cells) [µM] |
| --- | --- | --- |
| C[C@H](NC(=O)c1nc(-c2cc(C(F)(F)F)ccn2)nc(O)c1O)C1CCCCC1 [Compound 52, (S)-N-(1-cyclohexylethyl)-5,6-dihydroxy-2-(4-(trifluoromethyl)pyridin-2-yl)pyrimidine-4-carboxamide] | 1200 | 10.186 |
| C[C@@H](NC(=O)c1nc(-c2nc3ccccc3[nH]2)nc(O)c1O)C1CCCCC1 [Compound 29, (R)-2-(1H-benzo[d]imidazol-2-yl)-N-(1-cyclohexylethyl)-5,6-dihydroxypyrimidine-4-carboxamide] | 1700 | 3.3965 |
| C[C@@H](NC(=O)c1nc(-c2cccc(N)n2)nc(O)c1O)C1CCCCC1 [Compound 45, (R)-2-(6-aminopyridin-2-yl)-N-(1-cyclohexylethyl)-5,6-dihydroxypyrimidine-4-carboxamide] | 3360 | 3.2272 |
| C[C@@H](NC(=O)c1nc(-c2ncccc2Cl)nc(O)c1O)C1CCCCC1 [Compound 33, (R)-2-(3-chloropyridin-2-yl)-N-(1-cyclohexylethyl)-5,6-dihydroxypyrimidine-4-carboxamide] | 3400 | 6.8148 |
| O=C(NCCCC1CCCCC1)c1nc(-c2ccccn2)nc(O)c1O [Compound 8, N-(3-cyclohexylpropyl)-5,6-dihydroxy-2-(pyridin-2-yl)pyrimidine-4-carboxamide] | 2000 | 4.8472 |
| C[C@H](NC(=O)c1nc(-c2ccccn2)nc(O)c1O)C1CCCCC1 [Compound 38, (S)-N-(1-cyclohexylethyl)-5,6-dihydroxy-2-(pyridin-2-yl)pyrimidine-4-carboxamide] | 2450 | 0.5782 |
| CCNCc1ccc(-c2nc(O)c(O)c(C(=O)N[C@H](C)C3CCCCC3)n2)nc1 [Compound 60, (R)-N-(1-cyclohexylethyl)-2-(5-((ethylamino)methyl)pyridin-2-yl)-5,6-dihydroxypyrimidine-4-carboxamide] | 1600 | 6.4286 |
